# Data taken from US10450316B2, “Certain protein kinase inhibitor” (Chongqing Fochon Pharmaceutical Co., Ltd., priority 2015, dated 2019).
# System: BE(2)-C cell
# Experiment: Cell proliferation assay (MTS) in BE(2)-C cells
# Assay type: cell-based
# Settings: Homo sapiens, inhibition of BE(2)-C cell proliferation, 48 h
# How it was run: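 BE(2)-C cells (3000/well, DMEM + 10% FBS) were treated for 48 h at 37 °C with compound at 1.5–10000 nM in nine concentrations. Viability was measured by MTS (2 h, stopped with SDS) at 490/650 nm, and IC50 was calculated from the dose-response.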
row,SMILES,IC50 [nM]
1,"CN1C[C@@]2(C)CN(Cc3ccc(Nc4ncc(F)c(-c5cc(F)c6nc7n(c6c5)C5(CC7)CC5)n4)nc3)C[C@@]2(C)C1 [Example 139, 5-fluoro-4-(5-fluoro-2,3-dihydrospiro[benzo[d]pyrrolo[1,2-a]imidazole-1,1′-cyclopropan]-7-yl)-N-(5-(((3aR,6aS)-3a,5,6a-trimethylhexahydro-pyrrolo[3,4-c]pyrrol-2(1H)-yl)methyl)pyridin-2-yl)pyrimidin-2-amine]",> 1000
2,"Fc1cnc(Nc2ccc(CN3CC4CNCC4C3)cn2)nc1-c1cc(F)c2nc3n(c2c1)[C@H](C(F)F)CC3 (stereo partly drawn) [Example 48, 4-((S)-1-(difluoromethyl)-5-fluoro-2,3-dihydro-1H-benzo[d]pyrrolo[1,2-a]imidazol-7-yl)-5-fluoro-N-(5-((hexahydropyrrolo[3,4-c]pyrrol-2(1H)-yl)methyl)pyridin-2-yl)pyrimidin-2-amine]",> 100
3,"CN1C2CC1CN(Cc1ccc(Nc3ncc(F)c(-c4cc(F)c5nc6n(c5c4)C4(CC6)CC4)n3)nc1)C2 [Example 133, 5-fluoro-4-(5-fluoro-2,3-dihydrospiro[benzo[d]pyrrolo[1,2-a]imidazole-1,1′-cyclopropan]-7-yl)-N-(5-((6-methyl-3,6-diazabicyclo[3.1.1]heptan-3-yl)methyl)pyridin-2-yl)pyrimidin-2-amine]",10 to 100
4,"CN1CC2(CCN(Cc3ccc(Nc4ncc(F)c(-c5cc(F)c6nc7n(c6c5)[C@H](C(F)(F)F)CC7)n4)nc3)CC2)C1 [Example 65, (S)-5-fluoro-4-(5-fluoro-1-(trifluoromethyl)-2,3-dihydro-1H-benzo[d]pyrrolo[1,2-a]imidazol-7-yl)-N-(5-((2-methyl-2,7-diazaspiro[3.5]nonan-7-yl)methyl)pyridin-2-yl)pyrimidin-2-amine]",10 to 100
5,"CCN1C2CCC1CN(Cc1ccc(Nc3ncc(F)c(-c4cc(F)c5nc6n(c5c4)[C@H](CF)CC6)n3)nc1)C2 [Example 37, N-(5-((8-ethyl-3,8-diazabicyclo[3.2.1]octan-3-yl)methyl)pyridin-2-yl)-5-fluoro-4-((S)-5-fluoro-1-(fluoromethyl)-2,3-dihydro-1H-benzo[d]pyrrolo[1,2-a]imidazol-7-yl)pyrimidin-2-amine]",10 to 100
6,"CN1CCN(Cc2ccc(Nc3ncc(F)c(-c4cc(F)c5nc6n(c5c4)[C@H](CO)CC6)n3)nc2)CC1 [Example 2, (S)-(5-fluoro-7-(5-fluoro-2-((5-((4-methylpiperazin-1-yl)methyl)pyridin-2-yl)amino)pyrimidin-4-yl)-2,3-dihydro-1H-benzo[d]pyrrolo[1,2-a]imidazol-1-yl)methanol]",> 100
7,"CN1C2CCC1CN(Cc1ccc(Nc3ncc(F)c(-c4cc(F)c5nc6n(c5c4)[C@H](C(F)F)CC6)n3)nc1)C2 [Example 58, 4-((S)-1-(difluoromethyl)-5-fluoro-2,3-dihydro-1H-benzo[d]pyrrolo[1,2-a]imidazol-7-yl)-5-fluoro-N-(5-((8-methyl-3,8-diazabicyclo[3.2.1]octan-3-yl)methyl)pyridin-2-yl)pyrimidin-2-amine]",10 to 100
8,"CN1C2CCC1CN(Cc1ccc(Nc3ncc(F)c(-c4cc(F)c5nc6n(c5c4)[C@H](CF)CC6)n3)nc1)C2 [Example 36, 5-fluoro-4-((5)-5-fluoro-1-(fluoromethyl)-2,3-dihydro-1H-benzo[d]pyrrolo[1,2-a]imidazol-7-yl)-N-(5-((8-methyl-3,8-diazabicyclo[3.2.1]octan-3-yl)methyl)pyridin-2-yl)pyrimidin-2-amine]",> 100
9,"Fc1cnc(Nc2ccc(CN3CCN4CCC[C@@H]4C3)cn2)nc1-c1cc(F)c2nc3n(c2c1)C1(CC3)CC1 [Example 145, (R)-5-fluoro-4-(5-fluoro-2,3-dihydrospiro[benzo [d]pyrrolo[1,2-a]imidazole-1,1′-cyclopropan]-7-yl)-N-(5-((hexahydropyrrolo[1,2-a]pyrazin-2(1H)-yl)methyl)pyridin-2-yl)pyrimidin-2-amine]",10 to 100
10,"CC1(C)CCc2nc3c(F)cc(-c4cc(Nc5ccc(CN6C7CCC6CNC7)cn5)ncc4F)cc3n21 [Example 161, N-(5-((3,8-diazabicyclo[3.2.1]octan-8-yl)methyl)pyridin-2-yl)-5-fluoro-4-(5-fluoro-1,1-dimethyl-2,3-dihydro-1H-benzo[d]pyrrolo[1,2-a]imidazol-7-yl)pyridin-2-amine]",> 100
11,"CCN1CCN(Cc2ccc(Nc3ncc(F)c(-c4cc(F)c5nc6n(c5c4)[C@H](C(F)(F)F)CC6)n3)nc2)CC1 [Example 18, (S)—N-(5-((4-ethylpiperazin-1-yl)methyl)pyridin-2-yl)-5-fluoro-4-(5-fluoro-1-(trifluoromethyl)-2,3-dihydro-1H-benzo[d]pyrrolo[1,2-a]imidazol-7-yl)pyrimidin-2-amine]",10 to 100
12,"CN1CCN(Cc2ccc(Nc3ncc(F)c(-c4cc(F)c5nc6n(c5c4)[C@@H](C(F)F)CC6)n3)nc2)CC1 [Example 153, (R)-4-(1-(difluoromethyl)-5-fluoro-2,3-dihydro-1H-benzo[d]pyrrolo[1,2-a]imidazol-7-yl)-5-fluoro-N-(5-((4-methylpiperazin-1-yl)methyl)pyridin-2-yl)pyrimidin-2-amine]",> 1000
13,"CN1CCC2(CC1)CCN(Cc1ccc(Nc3ncc(F)c(-c4cc(F)c5nc6n(c5c4)C(C)(C)CC6)n3)nc1)CC2 [Example 121, 5-fluoro-4-(5-fluoro-1,1-dimethyl-2,3-dihydro-1H-benzo[d]pyrrolo[1,2-a]imidazol-7-yl)-N-(5-((9-methyl-3,9-diazaspiro[5.5]undecan-3-yl)methyl)pyridin-2-yl)pyrimidin-2-amine]",> 100
14,"Fc1cnc(Nc2ccc(CN3CCN4CCC[C@@H]4C3)cn2)nc1-c1cc(F)c2nc3n(c2c1)[C@H](C(F)F)CC3 [Example 41, 4-((S)-1-(difluoromethyl)-5-fluoro-2,3-dihydro-1H-benzo[d]pyrrolo[1,2-a]imidazol-7-yl)-5-fluoro-N-(5-(((R)-hexahydropyrrolo[1,2-a]pyrazin-2(1H)-yl)methyl)pyridin-2-yl)pyrimidin-2-amine]",10 to 100
15,"CN1CC2CCC(C1)N2Cc1ccc(Nc2cc(-c3cc(F)c4nc5n(c4c3)C(C)(C)CC5)c(F)cn2)nc1 [Example 162, 5-fluoro-4-(5-fluoro-1,1-dimethyl-2,3-dihydro-1H-benzo[d]pyrrolo[1,2-a]imidazol-7-yl)-N-(5-((3-methyl-3,8-diazabicyclo[3.2.1]octan-8-yl)methyl)pyridin-2-yl)pyridin-2-amine]",> 1000
16,"Fc1cnc(Nc2ccc(CN3CC4CCC(C3)N4)cn2)nc1-c1cc(F)c2nc3n(c2c1)[C@H](C(F)(F)F)CC3 [Example 79, N-(5-((3,8-diazabicyclo[3.2.1]octan-3-yl)methyl)pyridin-2-yl)-5-fluoro-4-((S)-5-fluoro-1-(trifluoro-methyl)-2,3-dihydro-1H-benzo[d]pyrrolo[1,2-a]imidazol-7-yl)pyrimidin-2-amine]",10 to 100
17,"CCN1CC2(C1)CN(Cc1ccc(Nc3ncc(F)c(-c4cc(F)c5nc6n(c5c4)[C@H](C(F)F)CC6)n3)nc1)C2 [Example 47, (S)-4-(1-(difluoromethyl)-5-fluoro-2,3-dihydro-1H-benzo[d]pyrrolo[1,2-a]imidazol-7-yl)-N-(5-((6-ethyl-2,6-diazaspiro[3.3]heptan-2-yl)methyl)pyridin-2-yl)-5-fluoropyrimidin-2-amine]",10 to 100
18,"Fc1cnc(Nc2ccc(CN3CCNCC3)cn2)nc1-c1cc(F)c2nc3n(c2c1)[C@H](C(F)F)CC3 [Example 10, (S)-4-(1-(difluoromethyl)-5-fluoro-2,3-dihydro-1H-benzo[d]pyrrolo[1,2-a]imidazol-7-yl)-5-fluoro-N-(5-(piperazin-1-ylmethyl)pyridin-2-yl)pyrimidin-2-amine]",> 100
19,"CN1CCN(Cc2cnc(Nc3cc(-c4cc(F)c5nc6n(c5c4)C(C)(C)CC6)c(F)cn3)nc2)CC1 [Example 165, N-(5-fluoro-4-(5-fluoro-1,1-dimethyl-2,3-dihydro-1H-benzo[d]pyrrolo[1,2-a]imidazol-7-yl)pyridin-2-yl)-5-((4-methylpiperazin-1-yl)methyl)pyrimidin-2-amine]",> 100
20,"Fc1cnc(Nc2ccc(CN3CC4(CCNCC4)C3)cn2)nc1-c1cc(F)c2nc3n(c2c1)[C@H](C(F)(F)F)CC3 [Example 61, (S)-N-(5-((2,7-diazaspiro[3.5]nonan-2-yl)methyl)pyridin-2-yl)-5-fluoro-4-(5-fluoro-1-(trifluoro-methyl)-2,3-dihydro-1H-benzo[d]pyrrolo[1,2-a]imidazol-7-yl)pyrimidin-2-amine]",> 100
21,"FC[C@@H]1CCc2nc3c(F)cc(-c4nc(Nc5ccc(CN6CC7(CCNCC7)C6)cn5)ncc4F)cc3n21 [Example 20, (S)-N-(5-((2,7-diazaspiro[3.5]nonan-2-yl)methyl)pyridin-2-yl)-5-fluoro-4-(5-fluoro-1-(fluoro-methyl)-2,3-dihydro-1H-benzo[d]pyrrolo[1,2-a]imidazol-7-yl)pyrimidin-2-amine]",> 1000
22,"CN1CC2(C1)CN(Cc1ccc(Nc3ncc(F)c(-c4cc(F)c5nc6n(c5c4)[C@H](C(F)F)CC6)n3)nc1)C2 [Example 46, (S)-4-(1-(difluoromethyl)-5-fluoro-2,3-dihydro-1H-benzo[d]pyrrolo[1,2-a]imidazol-7-yl)-5-fluoro-N-(5-((6-methyl-2,6-diazaspiro[3.3]heptan-2-yl)methyl)pyridin-2-yl)pyrimidin-2-amine]",10 to 100
23,"CCN1CCC2(CC1)CN(Cc1ccc(Nc3ncc(F)c(-c4cc(F)c5nc6n(c5c4)[C@H](C)CC6)n3)nc1)C2 [Example 91, (R)-N-(5-((7-ethyl-2,7-diazaspiro[3.5]nonan-2-yl)methyl)pyridin-2-yl)-5-fluoro-4-(5-fluoro-1-methyl-2,3-dihydro-1H-benzo[d]pyrrolo[1,2-a]imidazol-7-yl)pyrimidin-2-amine]",10 to 100
24,"CCN1CCN(Cc2ccc(Nc3ncc(F)c(-c4cc(F)c5nc6n(c5c4)[C@H](COC)CC6)n3)nc2)CC1 [Example 9, (S)—N-(5-((4-ethylpiperazin-1-yl)methyl)pyridin-2-yl)-5-fluoro-4-(5-fluoro-1-(methoxymethyl)-2,3-dihydro-1H-benzo[d]pyrrolo[1,2-a]imidazol-7-yl)pyrimidin-2-amine]",> 100
